From patent publication US5955505A, “Glutamic acid receptor agonist” (Nippon Suisan Kaisha, Ltd., priority 1995, dated 1999)
“Also recorded” adds a separate entry of the source.

Experiments:
non-NMDA receptors [1] = assay: Potentiation of AMPA- or kainic acid-elicited membrane current in Xenopus oocytes injected with rat hippocampus poly(A)+ RNA (two-electrode voltage clamp)
Description: By use of an improved method of Masu's Xenopus oocyte expression system [Nature 329,836 (1987)] an electrophysiological analysis was conducted.
(1) Preparation of poly(A)^+ RNA isolated from a rat hippocampus.
A hippocampus region was isolated from a rat and homogenized in the presence of […] and total RNA was extracted from the hippocampus by means of the ultracentrifugating method utilizing cesium chloride. Poly(A)^+ RNA was refined from the obtained RNA by use of oligo dT cellulose column.
(2) Expression of protein in Xenopus oocytes
(§1) 50 nl of the poly(A)^+ RNA (1 μg/μl) isolated was injected into an oocyte by a micromanipulator and the oocytes were cultured in a Barth's medium (88 mM NaCl, 1 mM KCl, 2.4 mM NaHCO3, 0.3 mM Ca(NO3)2, 0.41 mM CaCl2, 0.82 mM MgSO4, 10 μg/ml sodium penicillin, 10 μg/ml streptomycin sulfate, and 15 mM HEPES) at 19° C. for three to four days and used for measurement.
(3) Electrophysiological and pharmacological experiment by two-electrodes voltage clamp method.
(§2) The above-mentioned oocyte was set in a chamber under perfusion of frog Ringer's solution (120 mM NaCl, 2 mM KCl, 1.8 mM CaCl2, and 5 mM HEPES, pH 7.4) and microelectrodes were inserted into oocytes and the membrane potential was fixed at -70 mV. Subsequently, another frog Ringer's solution in which AMPA (100 μM) or kainate(KA) (100 μM) both of which are agonists for non-NMDA receptors was dissolved was substituted for the original Ringer's solution and then an inward membrane current was measured.
The membrane potential was fixed at -70 mV. The response was defined as one which was generated on the specimen under perfusion of frog Ringer's solution in which AMPA or kainic acid both of which are agonists for non-NMDA receptors was dissolved until a final concentration of 100 μM. The responses are shown as relative values which were measured on the oocytes under perfusion of frog Ringer's solution in which the compound of the invention and anilacetum which is a potentiator for non-NMDA receptors were dissolved until a concentration of 50 μM with AMPA or kainic acid.

non-NMDA receptors [2] = assay: Inward membrane current elicited by the compound alone in Xenopus oocytes injected with rat hippocampus poly(A)+ RNA (agonist action); assay type: cell-based; settings: antagonist 1 μM
Description: as §1, §2

[3] = 50 μM test substance with 100 μM AMPA, membrane potential -70 mV, control (AMPA alone) = 1
[4] = 50 μM test substance with 100 μM kainic acid, membrane potential -70 mV, control (kainic acid alone) = 1

Row | SMILES | Potentiation (relative values with a control as 1), AMPA (non-NMDA receptors [1]; xenopus oocytes, 50 µM) | Potentiation (relative values with a control as 1), kainic acid (non-NMDA receptors [1]; xenopus oocytes, 50 µM) | other results
1 | NC(=O)COc1ccc(SCCNS(=O)(=O)c2ccccc2)cc1F [Compound 142, 4-[2-(Phenylsulfonylamino)ethylthio]-2-fluorophenoxyacetamide] | 1.6 | 1.5 | –
2 | O=C(O)COc1c(F)cc(SCCNS(=O)(=O)c2ccc(Cl)cc2)cc1F [Compound 68, 2,6-Difluoro-4-[2-(4-chlorophenylsulfonylamino)ethylthio]phenoxyacetic acid] | 1.5 | 1.6 | –
3 | NC(=O)Cc1ccc(SCCNS(=O)(=O)c2ccccc2)cc1 [Compound 145, 4-[2-(phenylsulfonylamino)ethylthio]phenylacetamide] | 1.3 | 1.5 | –
4 | COc1ccc(C(=O)N2CCCC2=O)cc1 [anilacetum, reference compound] | – | – | Potentiation (relative values with a control as 1), AMPA (non-NMDA receptors [1]; [3]): does not potentiate; Potentiation (relative values with a control as 1), AMPA (non-NMDA receptors [1]; 50 μM test substance with 100 μM AMPA, membrane potential -70 mV, control (AMPA alone) = 1, 50 µM): 1; Potentiation (relative values with a control as 1), kainic acid (non-NMDA receptors [1]; [4]): does not potentiate; Potentiation (relative values with a control as 1), kainic acid (non-NMDA receptors [1]; 50 μM test substance with 100 μM kainic acid, membrane potential -70 mV, control (kainic acid alone) = 1, 50 µM): 1; Effect on response elicited by AMPA (non-NMDA receptors [1]; 1 mM test substance): doubles; Effect on response elicited by kainic acid (non-NMDA receptors [1]; 1 mM test substance (20 times in concentration)): does not affect
5 | N#Cc1cc2[nH]c(=O)c(=O)[nH]c2cc1[N+](=O)[O-] [CNQX, reference compound] | – | – | Inhibition of inward membrane current elicited by the compound of the invention alone (non-NMDA receptors [2]): inhibited; Inhibition of inward membrane current elicited by AMPA (100 μM) or kainate (100 μM) (non-NMDA receptors [1]; antagonist 1 μM, -70 mV): inhibited
6 | O=C(O)COc1ccc(SCCNS(=O)(=O)c2ccc(Br)cc2)cc1F [Compound 106, 2-Fluoro-4-[2-(4-bromophenylsulfonylamino)ethylthio]phenoxyacetic acid] | 1.4 | 1.5 | –
7 | COC(=O)COc1c(F)cc(SCCNS(=O)(=O)c2ccc(Cl)cc2)cc1F [Compound 128, methyl 4-[2-(4-chlorophenylsulfonylamino)ethylthio]-2,6-difluorophenoxyacetate] | 1.5 | 1.6 | –
8 | CN(C)C(=O)COc1ccc(SCCNS(=O)(=O)c2ccccc2)cc1F [Compound 143, N,N-Dimethyl-4-[2-(phenylsulfonylamino)ethylthio]-2-fluorophenoxyacetamide] | 1.4 | 1.6 | –
9 | C[C@]12N[C@H](Cc3ccccc31)c1ccccc12 [MK-801] | – | – | Inhibition of inward membrane current elicited by the compound of the invention alone (non-NMDA receptors [2]): not inhibited
10 | NC(=O)COc1c(F)cc(SCCNS(=O)(=O)c2ccccc2)cc1F [Compound 139, 4-[2-(Phenylsulfonylamino)ethylthio]-2,6-difluorophenoxyacetamide] | – | – | Potentiation of the non-NMDA receptor response (membrane current elicited by kainic acid and AMPA), in words (non-NMDA receptors [1]; 50 μM compound with 100 μM AMPA or kainic acid): definitely active; also recorded: especially strong action; Potentiation (relative values with a control as 1), AMPA (non-NMDA receptors [1]; [3]): 23.2; Potentiation (relative values with a control as 1), kainic acid (non-NMDA receptors [1]; [4]): 2.8
